Results reported in patent US5082937A, “Benzodiazepines and applications in therapeutic practice” (Jouveinal S.A., priority 1989, dated 1992).
Read-outs that look alike come from different tables or passages of the source.

Legend:
[1] = target: T1, central cholecystokinin receptor: CCK-B (Cavia porcellus, UniProt H0VZC5); assay: Binding affinity for the central cholecystokinin receptor (CCK B), guinea-pig brain membranes, inhibition of labelled [125I]-CCK8 sulphate binding
T1 construct: guinea-pig brain membranes; from tissue; host or cells: brain membranes of male guinea pigs (animals from COBLABO)
T1 sequence (H0VZC5 1-426): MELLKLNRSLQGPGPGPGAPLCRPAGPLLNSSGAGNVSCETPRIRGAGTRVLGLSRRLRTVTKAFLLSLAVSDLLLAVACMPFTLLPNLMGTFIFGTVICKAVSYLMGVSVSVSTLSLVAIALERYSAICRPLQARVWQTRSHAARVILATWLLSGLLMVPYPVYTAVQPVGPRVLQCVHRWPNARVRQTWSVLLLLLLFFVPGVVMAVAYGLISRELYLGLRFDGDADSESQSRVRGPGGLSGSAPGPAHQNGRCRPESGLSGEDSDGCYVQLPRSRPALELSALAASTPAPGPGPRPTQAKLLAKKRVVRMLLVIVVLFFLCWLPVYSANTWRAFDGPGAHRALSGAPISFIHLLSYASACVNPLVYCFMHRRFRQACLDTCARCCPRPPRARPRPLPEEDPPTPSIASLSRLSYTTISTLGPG
From the text: (§1) The "in vitro" studies consisted in determining the binding affinity of the compounds of the invention for the cholecystokinin and gastrin receptors. […]
(§2) guinea-pig brain membranes (males, COBLABO, 325-350 g) (central cholecystokinin receptor: CCK-B).
(§3) in accordance with the experimental protocol described by INNIS, R. B. and S. M. SNYDER, Eur. J. Pharmacol., 1980 65 123-124.
(§4) The unit of measurement is the nanomole.

[2] = system: central cholecystokinin receptor: CCK-B; assay: as above; conditions: for Selectivity CCK B/CCK A: IC50 CCK A / IC50 CCK B
From the text: as §1, §2, §3, §4

gastrin receptor [3] = target: T2, gastrin receptor (Cavia porcellus, UniProt H0VZC5); assay: Binding affinity for the gastrin receptor, guinea-pig gastric glands, iodine-125-labelled gastrin
T2 construct: guinea-pig gastric glands; from tissue; host or cells: gastric glands of male guinea pigs (animals from COB LABO)
T2 sequence (H0VZC5 1-426): T1 sequence (H0VZC5 1-426)
From the text: (§5) The "in vitro" studies consisted in determining the binding affinity of the compounds of the invention for the cholecystokinin and gastrin receptors.
(§6) The aim of these experiments was to determine the solution concentrations of products of formula (I) which were capable of inhibiting in relation to the receptors in question fifty percent of the cholecystokinin bonds, labelled with […] (abbreviated below as [1251]-CCK8 sulphate) or in the case of the iodine-125-labelled gastrin receptor with the following receptors:
(§7) guinea-pig gastric glands (males, COB LABO, 325-350 g) in accordance with the method described by PRAISSMAN, M., M. E. WALDEN and C. PELLECHIA. Journal of Receptor Research, 1983 3 647-665 (gastrin receptor).
as §4

gastrin receptor [4] = assay: as above; conditions: for Selectivity GASTRIN/CCK A: IC50 CCK A / IC50 gastrin
From the text: as §5, §6, §7, §4

[5] = target: T3, peripheral cholecystokinin receptor: CCK-A (Rattus norvegicus, UniProt P30551); assay: Binding affinity for the peripheral cholecystokinin receptor (CCK A), plasma membranes of the rat pancreas, inhibition of labelled [125I]-CCK8 sulphate binding
T3 construct: plasma membranes of the rat pancreas; from tissue; host or cells: pancreas plasma membranes of male SD rats (animals from IFFA CREDO)
T3 sequence (P30551 1-444): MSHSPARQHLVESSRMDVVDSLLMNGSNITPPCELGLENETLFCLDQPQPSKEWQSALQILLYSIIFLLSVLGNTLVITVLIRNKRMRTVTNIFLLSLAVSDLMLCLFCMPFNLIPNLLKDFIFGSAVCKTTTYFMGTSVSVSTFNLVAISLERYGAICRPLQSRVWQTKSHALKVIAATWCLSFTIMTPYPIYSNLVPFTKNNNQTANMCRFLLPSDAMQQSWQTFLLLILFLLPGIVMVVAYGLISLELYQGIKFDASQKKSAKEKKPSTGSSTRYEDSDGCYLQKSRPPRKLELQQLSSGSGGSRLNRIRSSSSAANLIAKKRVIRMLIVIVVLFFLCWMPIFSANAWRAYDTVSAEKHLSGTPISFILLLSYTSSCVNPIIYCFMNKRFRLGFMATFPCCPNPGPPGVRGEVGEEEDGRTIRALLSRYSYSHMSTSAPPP
From the text: as §5, §6
plasma membranes of the rat pancreas (male SD, rats, IFFA CREDO 200-225 g) (peripheral cholecystokinin receptor: CCK-A),
as §3, §4

[6] = system: gastric evacuation, slowed down by CCK-8 (peripheral receptor CCK-A); assay: Gastric evacuation slowed down by CCK-8 in the mouse; format: in vivo; conditions: oral; for ED50: Mus musculus, SWISS male mice, CCK-8 80 μg/kg subcutaneous
Procedure: The antagonist activity of CCK on the digestive motor effects of the hormone has been examined in relation to the gastric evacuation, slowed down by the subcutaneous administration of CCK-8 (80 μg/kg) in SWISS male mice (IFFA CREDO 16-20 g), using the technique described by Lotti, V. J., D. J. Cerino, P. J. Kling and R. S. L. Chang. Life Sciences, 1986 39, 1631-1638.

[7] = system: gastrin-induced acid secretion; assay: Gastrin-induced acid secretion in the rat (chronic gastric fistula, pentagastrin perfusion); format: in vivo; conditions: 1 mg/kg oral; for Gastric secretion % inhibition: SD male rat, pentagastrin 6 μg/kg/h i.v.
Procedure: The activity of the products of the invention in relation to gastrin-induced acid secretion in the rat has been studied by the method described by Pascaud, X. P. , A. R. Roger and M. J. H. Genton. Digestion, […] 16 57-68. The method consists in collecting the gastric acid secretion over two consecutive 2 hour periods in SD male rats (IFFA CREDO 250-300 g), provided with a chronic gastric fistula and continuously perfused i.v. with a pentagastrin solution (Peptavlon, ICI, 6 μg/kg/h). The inhibition of this secretion by the oral administration of 1 mg/kg product of the invention has been determined.

[8] = system: A receptors of cholecystokinin; conditions: published, in vitro; cited from earlier work
gastrin receptors = conditions: published, in vitro, cited from earlier work
[9] = guinea-pig brain membranes; Table I; read-out: IC50 Receptor bond CCK B
[10] = guinea-pig gastric glands; Table I; read-out: IC50 Receptor bond Gastrin
[11] = in comparison with compound XXa

SMILES: O=C1C(NC(=S)Nc2ccc(Br)cc2)N=C(c2ccccc2)c2cccc3c2N1CCC3 (stereo in doubt) [Example 26, (5S)-N-(keto-4-phenyl-7-hexahydro-1,2,3,3a,4,5-pyrido[3,2,1-j,k]benzodiazepine[1,4]-yl-4)-N'-(bromo-4-phenyl-)-thiourea]
- IC50 [1, 9]: 137 nM
- Selectivity CCK B/CCK A [2]: > 70
- IC50 (gastrin receptor [3]; [10]): 36 nM
- Selectivity GASTRIN/CCK A (gastrin receptor [4]): > 250
- IC50 [5]: > 10000 nM

SMILES: Cc1cccc(NC(=O)N[C@@H]2N=C(c3ccccc3)c3cccc4c3N(CCC4)C2=O)c1 [Example 7, (+)-(5R)-N-(keto-4-phenyl-7-hexahdyro-1,2,3,3a,4,5-pyrido [3,2,1-j,k]benzodiazepine[1,4]-yl-5)-N'-(methyl-3-phenyl-)-urea]
- IC50 [1, 9]: 255 nM
- IC50 (gastrin receptor [3]; [10]): 40.5 nM
- IC50 [5]: 1730 nM

SMILES: O=C1C(NC(=S)Nc2ccc(Br)cc2)N=C(c2ccccc2)c2cccc3c2N1CCC3 (racemic) [Example 10, (5R,S)-N-(keto-4-phenyl-7-hexahydro-1,2,3,3a,4,5-pyrido[3,2,1-j-k]benzodiazepine-[1,4]-yl-5)-N'-(bromo-4-phenyl-)-thiourea]
- ED50 [6]: 15.5 mg/kg
- times more product required than XXa for 50% reduction of the inhibiting effects of CCK-8 on gastric evacuation ([6]; in comparison with XXa): 100 times
- IC50 [1, 9]: 88 nM
- Gastric secretion % inhibition [7]: 31%
- inhibiting activity on gastrin-induced acid secretion compared with XXa ([7]; in words): identical
- IC50 (gastrin receptor [3]; [10]): 3.2 nM
- times less active on the gastrin receptor than XXa (gastrin receptor [3]; [11]): 1.5 times
- activity compared with reference compound XXa (gastrin-specific compounds) (gastrin receptor [3]; in words): similar
- IC50 [5]: 3040 nM

SMILES: Cc1cccc(NC(=O)N[C@@H]2N=C(c3ccccc3)c3cccc4c3N(CC4)C2=O)c1 [Example 2, (4R)-N-(keto-3-phenyl-6-tetrahydro-1,2,3,4-pyrrolo[3,2,1-j,k]benzodiazepine-[1,4]-yl-4)-N'-(methyl-3-phenyl-)-urea]
- IC50 [1, 9]: 99.9 nM
- activity on the CCK B receptor compared with XXa ([1]; in words): of the same order
- IC50 (gastrin receptor [3]; [10]): 85.9 nM
- times less active on the gastrin receptor than XXa (gastrin receptor [3]; [11]): 20 times
- IC50 [5]: 1020 nM
- activity on the CCK A receptor compared with XXa ([5]; in words): of the same order

SMILES: O=C(Nc1ccc([N+](=O)[O-])cc1)NC1N=C(c2ccccc2)c2cccc3c2N(CCC3)C1=O (racemic) [Example 8, (5R,S)-N-(keto-4-phenyl-7-hexahydro-1,2,3,3a,4,5-pyrido[3,2,1-j,k]benzodiazepine-[1,4]-yl-5)-N'-(nitro-4-phenyl-)-urea]
- IC50 [1, 9]: 1810 nM
- IC50 (gastrin receptor [3]; [10]): 60 nM
- IC50 [5]: 3080 nM

SMILES: O=C(Nc1cnc2ccccc2c1)NC1N=C(c2ccccc2)c2cccc3c2N(CCC3)C1=O (racemic) [Example 23, (5R,S)-N-(keto-4-phenyl-7-hexahydro-1,2,3,3a,4,5-pyrido[3,2,1-j,k]benzodiazepine[1,4]-yl-5)-N'-(quinolinyl-3-)-urea]
- IC50 [1, 9]: 176 nM
- factor less active on the CCK B receptor than XXa [1, 11]: 2 factor
- higher selectivity for the CCK B receptor than XXa [2, 11]: ~30 times
- IC50 (gastrin receptor [3]; [10]): 298 nM
- times less active on the gastrin receptor than XXa (gastrin receptor [3]; [11]): ~60 times
- IC50 [5]: 389 nM

SMILES: Cc1cccc(NC(=O)N[C@@H]2N=C(c3ccccc3)c3ccccc3N(C)C2=O)c1 [XXa, reference compound]
- ED50 [6]: 0.15 mg/kg
- CCK-A activity, term of the CCK-A/gastrin ratio [8]: 290
- gastrin activity, term of the CCK-A/gastrin ratio (gastrin receptors): 1.9
- CCK-A/gastrin activity ratio (times more favourable to gastrin receptors) (gastrin receptors; ratio 290/1.9): about 150 times
- IC50 ([1]; read-out: IC50 Receptor bond CCK B; guinea-pig brain membranes; Table I): 81.4 nM
- Selectivity CCK B/CCK A [2]: 17
- Gastric secretion % inhibition [7]: 29%
- IC50 (gastrin receptor [3]; read-out: IC50 Receptor bond Gastrin; guinea-pig gastric glands; Table I): 4.7 nM
- Selectivity GASTRIN/CCK A (gastrin receptor [4]): 302
- CCK-A/gastrin activity ratio reproduced by the Applicant (times more favourable to gastrin receptors) (gastrin receptor [4]; ratio 1419/4.7): about 300 times
- IC50 ([5]; rat pancreas plasma membranes, Table I, read-out: IC50 Receptor bond CCK A): 1420 nM

SMILES: Cc1cccc(NC(=O)NC2N=C(c3ccccc3)c3cccc4c3N(CC4)C2=O)c1 (racemic) [Example 1, (4R,S)-N-(keto-3-phenyl-6-tetrahydro-1,2,3,4-pyrrolo[3,2,1-j,k]benzodiazepine[1,4]-yl-4)-N'-(methyl-3-phenyl-)-urea]
- IC50 [1, 9]: 431 nM
- IC50 (gastrin receptor [3]; [10]): 14.4 nM
- IC50 [5]: 59.6 nM

SMILES: Cc1cccc(NC(=O)NC2N=C(c3ccccc3)c3cccc4c3N(CCC4)C2=O)c1 (racemic) [Example 5, (5R,S)-N-(keto-4-phenyl-7-hexahydro-1,2,3,3a,4,5-pyrido [3,2,1-j,k]benzodiazepine-[1,4]-yl-5)-N'-(methyl-3-phenyl-)-urea]
- IC50 [1, 9]: 251 nM
- IC50 (gastrin receptor [3]; [10]): 1.5 nM
- times less active on the gastrin receptor than XXa (gastrin receptor [3]; [11]): 3 times
- activity compared with reference compound XXa (gastrin-specific compounds) (gastrin receptor [3]; in words): similar
- IC50 [5]: 84.2 nM
